Experimental data published in patent publication US11192849B2, “Compounds, compositions, and methods for modulating ferroptosis and treating excitotoxic disorders” (THE TRUSTEES OF COLUMBIA UNIVERSITY IN THE CITY OF NEW YORK, priority 2013, dated 2021).
Where two headings read alike, the source gives them in different places.

System: HT-1080 cells
Test: Inhibition of erastin (10 μM)-induced death in HT-1080 cells (Alamar Blue)
Format: cell-based, human
Conditions: for prevention of erastin-induced death: erastin-treated HT-1080 cells
Protocol: Cell viability was typically assessed in 384-well format by Alamar Blue (Invitrogen) fluorescence (ex/em 530/590) measured on a Victor3 platereader (Perkin Elmer, Waltham, Mass.). In some experiments, Trypan Blue dye exclusion counting was performed using an automated cell counter (ViCell, Beckman-Coulter Inc., Brea, Calif.). Cell viability in test conditions is reported as a percentage relative to the negative control treatment.
The ability of various compounds disclosed herein to inhibit death in erastin (10 μM)-treated HT-1080 cells were tested. Cell viability was assessed by Alamar Blue. EC50 values (nM) were computed from dose response curves.
HT-1080 cells are cultured in DMEM containing 10% fetal bovine serum, 1% supplemented non-essential amino acids and 1% pen/strep mixture (Gibco) and maintained in a humidified environment at 37° C. with 5% CO2 in a tissue culture incubator. 1,000 HT-1080 cells are seeded per well in duplicate 384-well plates (Corning) using a BioMek FX liquid handling robot (Beckman Coulter). The next day, the medium is replaced with 36 μL of medium containing 10 μM erastin with 4 μL of medium containing a dilution series (previously prepared) of DMSO, Fer-1 (positive control) or Fer-1 analogs. 24 hours later, 10 μL Alamar Blue (Invitrogen) cell viability solution is added to the growth media to a final concentration of 10%. Cells are incubated a further 6 hours and then the Alamar Blue fluorescence intensity recorded using a Victor 3 platereader (PerkinElmer)(ex/em 530/590). All experiments are performed at least twice and the background (no cells)-subtracted Alamar Blue values for each combination are averaged between replicates.

[1] = SI Table 2, analogs with various hydrophobic moieties, read-out: EC50
[2] = Homo sapiens, HT-1080, SI Table 7, read-out: EC50
[3] = SI Table 3, cyclic amines bearing heteroatoms, read-out: EC50
[4] = Homo sapiens, HT-1080, SI Table 2, analogs with various hydrophobic moieties, read-out: EC50
[5] = Homo sapiens, HT-1080, SI Table 3, cyclic amines bearing heteroatoms, read-out: EC50

CCOC(=O)c1ccc(NC2CCC(C(C)(C)C)CC2)c(N)c1 (single isomer, unassigned) [SRS13-10_F1, Ethyl 3-amino-4-(4-tert-butylcyclohexyl-amino)benzoate]
EC50 [1]: 44 nM

CCOC(=O)c1ccc(NC2CCC(C(C)(C)C)CC2)c(N)c1 (single isomer, unassigned) [SRS13-10_F2, Ethyl 3-amino-4-(4-tert-butylcyclohexyl-amino)benzoate]
EC50 [1]: 13 nM

CCOC(=O)c1ccc(NC2CCC(C(C)(C)C)CC2)c(NCc2ccccc2)c1 (single isomer, unassigned) [SRS13-29, ethyl 3-(benzylamino)-4-(4-tert-butylcyclohexylamino)benzoate]
EC50 [2]: 83 nM

c1ccc(-c2ccccn2)nc1 [2,2-bipyridyl, reference compound]
protection when added after erastin (added up to 6 hours after erastin): substantial protection from death

NOCC(=O)O [AOA, aminooxyacetic acid, reference compound]
prevention of erastin-induced death: rescued both HT-1080 and BJeLR cells from erastin-induced ferroptosis

CC(=O)OCOC(=O)CN(CC(=O)OCOC(C)=O)c1ccccc1OCCOc1ccccc1N(CC(=O)OCOC(C)=O)CC(=O)OCOC(C)=O [BAPTA-AM, reference compound]
prevention of erastin-induced death: had no effect on erastin-induced death

CCOC(=O)c1ccc(NC2CCCCC2)c(NCc2ccc(OC(C)=O)cc2)c1 [Compound 4MO43, ethyl 4-(cyclohexylamino)-3-(4-(ethanoyloxy)benzylamino)-benzoate]
EC50 [2]: 47 nM

O=C(O)C(Cl)Cl [DCA, dichloroacetic acid, reference compound]
prevention of erastin-induced death: had no effect on erastin-induced ferroptosis

COC(=O)CCC(=O)C(=O)OC [DMK, dimethyl alpha ketoglutarate, reference compound]
prevention of erastin-induced death: the lethality of erastin was restored

O=C(O)CN(CCOCCOCCN(CC(=O)O)CC(=O)O)CC(=O)O [EGTA, reference compound]
prevention of erastin-induced death: had no effect on erastin-induced death

Cc1ccc(N(CC(=O)O)CC(=O)O)c(OCCOc2cc3cc(-c4ncc(C(=O)O)o4)oc3cc2N(CC(=O)O)CC(=O)O)c1 [Fura-2, reference compound]
prevention of erastin-induced death: had no effect on erastin-induced death

CC(C)(C)OC(=O)NCCOCCOC(=O)c1ccc(NC2CCCCC2)c(N)c1 [SRS8-37, 2-(2-(tert-butoxycarbonylamino)ethoxy)ethyl 3-amino-4-(cyclohexylamino)benzoate]
EC50 (Homo sapiens, HT-1080, SI Table 4, various R3 substitutions, read-out: EC50): 160 nM

CCOC(=O)c1ccc(NC2CCOCC2)c(N)c1 [SRS8-41]
EC50 [3]: 1450 nM

CCOC(=O)c1ccc(Nc2ccccc2)c(N)c1 [SRS8-42, ethyl 3-amino-4-(phenylamino)benzoate]
EC50 [4]: 200 nM

NCCOCCOC(=O)c1ccc(NC2CCCCC2)c(N)c1 [SRS8-43, 2-(2-aminoethoxy)ethyl 3-amino-4-(cyclohexylamino)benzoate]
EC50 (Homo sapiens, HT-1080, SI Table 4, various R3 substitutions): 420 nM

CCOC(=O)c1ccc(NC2CCC(NC(=O)OC(C)(C)C)CC2)c(N)c1 (stereo not drawn) [SRS8-46, ethyl 3-amino-4-(4-(tert-butoxycarbonylamino)cyclohexyl-amino)benzoate]
EC50 [5]: 515 nM

CCOC(=O)c1ccc(NC2CCN(C(=O)OC(C)(C)C)CC2)c(N)c1 [SRS8-47, tert-butyl 4-(2-amino-4-(ethoxycarbonyl)phenylamino)-piperidine-1-carboxylate]
EC50 [5]: 710 nM

CCOC(=O)c1ccc(NC2CCC(C)CC2)c(N)c1 (stereo not drawn) [SRS8-48, ethyl 3-amino-4-(4-methylcyclohexylamino)benzoate]
EC50 [4]: 90 nM

CCOC(=O)c1ccc(NC2CCC(F)(F)CC2)c(N)c1 [SRS8-52, ethyl 3-amino-4-(4,4-difluorocyclohexylamino)benzoate]
EC50 [5]: 650 nM

CCOC(=O)c1ccc(NN2CCN(C)CC2)c(N)c1 [SRS8-53]
EC50 [3]: 3600 nM

CCOC(=O)c1ccc(NC2CCN(C(=O)OCC)CC2)c(N)c1 [SRS8-54, ethyl 4-(2-amino-4-(ethoxycarbonyl)phenylamino)piperidine-1-carboxylate]
EC50 [5]: 2500 nM
